Test results as given in paper PMC7714071, “Interaction of amyloid beta with humanin and acetylcholinesterase is modulated by ATP” (FEBS Open Bio, 2020).

Tests used:
[1] = test system: Aβ in H1299 cell-conditioned media; assay: ELISA, oligomer versus total Aβ in H1299 cell-conditioned media; type: cell-based, human; settings: Fig. 8B
Procedure: Aβ ELISAs were carried out according to previous protocols for determining the oligomeric and monomeric concentrations of Aβ and as we recently reported. Briefly, total Aβ (monomers + oligomers) was measured by two‐site binding ELISAs using the capture 6E10 monoclonal antibody and 4G8‐conjugated biotin as the detection antibody, which recognizes a distinct epitope, then quantitated using streptavidin‐HRP.
Using the same samples, oligomerized Aβ was measured by a single‐site ELISA in which antibodies targeting the same primary sequence epitope were used for both capture (4G8) and detection (4G8‐biotin). Only oligomers are detected with this approach since the 4G8‐biotin antibody cannot bind to the captured monomer because the epitope is blocked by the 4G8 capture antibody. Therefore, only oligomeric or multimeric Aβ containing additional exposed 4G8 epitopes, not engaged by the capture antibody, are reported by the streptavidin–HRP. The amount of the monomer was then estimated as the difference between the concentration of total Aβ and the concentration of the oligomer.
Conditioned media were immunodepleted (ID) according to the methods previously described and our recently published report. Briefly, specific antibodies were bound to ELISA wells overnight (1 : 1000 dilution). The wells were then blocked and washed, then 300 μL of the conditioned medium (0.5 μg·μL^−1) treated as indicated, 72 h postserum starvation, was incubated with the antibodies bound to ELISA wells for 24 h. The ID media were then carefully removed and analyzed for the presence of the target protein or peptide by ELISA. The same amount of protein (3 µL of 600 µg·mL^−1 total protein) of each sample was analyzed in the experiments. Significant depletion (95–100%) was observed upon using each of the antibodies employed in this study.
Both epitopes recognized by the 6E10 and 4G8 antibodies have been previously shown to be exposed in Aβ aggregates. […] To determine the effect of ID of AChE or HN on this ratio in the absence or presence of added ATP, 0.2 × 10^5 cells per well were seeded in 96‐well plates in 10% FBS‐supplemented media. The next day, the cells were incubated in serum‐free medium for 72 h, then ID of AChE or HN as described in Materials and methods. The antibodies 6E10 or 4G8 were bound (1 : 1000 dilution) to ELISA wells (Fig. 8). The wells were blocked, and then incubated with 300 μL of the ID medium (0.5 μg·μL^−1). Biotin‐4G8 was then added and the signal processed as described in Materials and methods section. Fold change relative to controls using anti‐6E10 or anti‐4G8 antibodies incubated with 300 μL of the medium not incubated with cells was calculated.
Cells (0.2 × 10^5) were grown in 10% FBS‐supplemented media for 24 h. The cells were then incubated in serum‐free medium for 72 h without or with ATP and the media collected and ID from either HN or AChE as described in Materials and methods section. The antibodies 6E10 or 4G8 were bound (1 : 1000 dilution) to ELISA wells. The wells were blocked, and then incubated with 300 μL of the control and ID medium (0.5 μg·μL^−1). Biotin‐4G8 was then added and the signal processed as described in Materials and methods section. Fold change relative to controls using anti‐6E10 and anti‐4G8 antibodies and 300 μL of the medium not incubated with cells was calculated. Data were processed using the […] 8.4.3 software. The graphs summarize the results expressed as means ± SD of three separate experiments, each performed in triplicate. […]

Aβ = settings: cited from earlier work
Description: Soluble oligomers of proteins implicated in different diseases are primarily thought to be the main toxic form as opposed to the larger fibrillar assemblies. Aβ regions containing Tyr and Ser (H6DSGY10 and G25SNKG29) (Fig. 1) along with post‐translational modifications of these regions, have been implicated in misfolding, oligomerization, or fibril formation of Aβ [5, 10, 11, 16, 41]. […] In addition to ATP, the glycosaminoglycan, heparan sulfate (HS), has been previously reported to i ... || Access to the central domain of Aβ (residues 17–24) flanked by Lys‐16 and Lys‐28, known to be a critical structural element in fibrillar Aβ aggregates, might be regulated by binding of AChE and HN to their overlapping binding sites on Aβ. […] Moreover, we s ...

## Nc1ncnc2c1ncn2[C@@H]1O[C@H](COP(=O)(O)OP(=O)(O)OP(=O)(O)O)[C@@H](O)[C@H]1O [ATP, Adenosine triphosphate]
[1]; HN-immunodepleted H1299 media, three experiments in triplicate
  effect of ATP on relative amount of oligomer versus total Aβ: does not affect
[1]; non-depleted, HN-ID or AChE-ID media
  effect of ATP on relative amount of oligomer versus total Aβ: lack of effect
Aβ; physiological intracellular concentrations, enhanced by magnesium
  effect on misfolding of Aβ: reduced misfolding of Aβ

## heparan sulfate [HS]
Aβ
  effect of HS on Aβ aggregation: increasing their aggregation

## Humanin [HN]
[1]; HN-immunodepleted H1299 media (non-depleted ~ 48%)
  oligomer, % of total Aβ remaining after HN ID: ~ 69%
[1]; HN-immunodepleted H1299 media
  total Aβ remaining after HN ID: ~ 58%
Aβ; to levels close to HN alone
  Aβ aggregation in presence of both HN and AChE: greatly diminished
